“Also recorded” adds a separate entry of the source. Peptide text beside a SMILES is read from it. * marks the point of attachment. X1 = COC(=O)CC(N*)C(=O)COc1c(F)cccc1F; Quinaldoyl = O=C(c1ccc2ccccc2n1)*
What was measured:
Assay type in all cases: in vivo, rat
[1] = tested on: rats with permanent ligature of the left coronary artery (PMI); test: Survival of animals after chronic ischemia (PMI); conditions: intraperitoneal injection 5-15 min before occlusion
Description: The analyses were performed on 2 myocardial ischemia models: a chronic ischemia model and an acute ischemia model, followed by myocardial reperfusion after 30 min of occlusion.
Said models were realized with Wistar male rats (180-220 g). The coronary artery was ligatured according to Pfeffer et al protocol.
Briefly, the rats were anaesthetized by intraperitoneal administration of a mixture of Ketamine (150 mg/kg) and Xylazine (15 mg/kg), then intubated and mechanically ventilated. The animals were submitted to a left and median thoracotomy. An occlusion of the coronary artery was done with a silk wire (size: 7.0) at the more proximal point and below the auricle.
In the case of chronic ischemia, the ligature was maintained and the rib cage of the animal reclosed (PMI model for post myocardial infarction).
The effect of the blocking of the caspase activity by Q-VD-OPH or by D1 on animals survival […] after infarction are given on FIG. 3. (A) over a period of 140 days; (B) the injection of the inhibitors or vehicle (DMSO) was carried out by intraperitoneal route 5-15 min before the occlusion of the coronary artery.
The animals having undergone a permanent ligature of the left coronary artery (PMI) were maintained alive during 4-5 months before performing the in vivo and ex vivo functional exploration. The death of the animals during this period was followed up.

[2] = tested on: single ventricular cardiomyocytes; test: Ca2+ handling and cell shortening of cardiomyocytes isolated after ischemia-reperfusion; conditions: 30 min ischemia, 10 days reperfusion; for sarcoplasmic reticulum Ca2+ load: 10 mM caffeine, versus sham-operated; for amplitude of cytosolic Ca2+ transients: 0.5 Hz field stimulation
Description: Experiments were carried out on single ventricular cardiomyocytes isolated from rats after 30 minutes of myocardial ischemia followed by 10 days of reperfusion. Cardiomyocytes were loaded with a fluorescent calcium indicator (Fluo4) in order to measure calcium transient evoked by 0.5 Hz field stimulation. Cell shortening was also simultaneously recorded as an index of cardiomyocyte contraction. […] These deleterious effects classically reported by others in similar experimental conditions Under TRP601 or QV-D-oph treatment Ca^2+ transients amplitude was unchanged B. Similarly, Ca^2+ release kinetics estimated by the amplitude/time to peak (TT) ratio was slowed down in cardiomyocytes of untreated animals, whereas under TRP601 or QV-D-oph treatment Ca^2+ release was unaffected. C. Altered Ca^2+ transient kinetics in vehicle-treated animal are accompanied by a decrease in sarcoplasmic reticulum Ca^2+ load (estimated by application of 10 mM caffeine). […] (*p<0.05 compared to sham-operated animals, n≧5 animals).

[3] = tested on: ventricular cardiomyocytes; test: Patch-clamp electrophysiological recordings on ventricular cardiomyocytes of PMI rats; conditions: for density of transitory current coming out (Ito): cardiomyocytes of the sub-epicardic layer; for membrane capacity (cellular size; hypertrophy induced by myocardial ischemia): cardiomyocytes after 4-5 months
Description: The isolated ventricular cardiomyocytes were obtained by enzymatic dissociation with collagenase by Langendorf reversed perfusion (Fauconnier, 2005). The rats were heparinized (0.2 ml, GIBCO® 1000 Ul/ml) and anaesthetized by intraperitoneal injection of pentobarbital ([…], Sanofi Santé, France). The heart was rapidly excised and a retrograde perfusion through the aorta, was performed for 5 min with a calcium-free washing solution (in mM: NaCl 117, KCl 5.7, NaHCO3 4.4, KH2PO4 1.5, MgCl2 1.7, HEPES 21, glucose 11, taurine 20, pH 7.2 (adjusted with NaOH) and O2-bubbled) at 37° C. The solution was then replaced by a similar medium containing 1.3 mg·ml^−1 of collagenase of type IV (Worthington, Freehold, N.J., USA) and perfused during 20-30 min. The heart was then perfused with the initial solution containing 2,3-butanedione monoxime as inhibitor of the muscular contraction (15 mM BDM). The ventricles were then delicately separated and, by mechanic stirring, the cardiomyocytes were liberated in the medium. The dissociated cells were washed in the same solution wherein increased concentrations of CaCl2 were added (0.3, 1, 1.8 mM). The cells of the sub-epicardial layer (EPI) were separated from the sub-endocardial layer (ENDO) by simple manual dissection.
The potentials of action (PA) and ionic currents were measured by the patch-clamp technique in whole cell configuration using an amplifier RK 400 (Biologic, Claix France) interfaced by a analogical/numerical converter DIGIDATA 1200 (Axon Instrument, Sunnyvale, Calif., USA) controlled by a PC. The acquisition and analysis of the data were realized with pCLAMP program (Axon Instrument, Sunnyvale, Calif., USA). The sampling frequency was of 10 KHz and the signals filtrated at 3 KHz. Pipettes comprised between 1 and 1.5 MΩ were used to ensure a good quality of voltage. For the measure of the potentials of action, the pipettes were filled with an internal solution (in mM: 130 KCl, 25 HEPES, 3 MgATP, 0.4 NaGTP, and 0.5 EGTA; the pH was adjusted at 7.2 with KOH). The external medium was composed of (in mM): 135 NaCl, 1 MgCl2, 4 KCl, 11 glucose, 2 HEPES, and 1.8 CaCl2; the pH was adjusted to 7.2. with NaOH.
The PA were started by injections of current of 0.2 ms at an intensity slightly higher than the supraliminal intensity threshold. The transitory potassium current coming out (Ito) was measured with the same internal and external solution (10 μM of tetrodotoxine (TTX) and 2 mM of cobalt chloride were added to the external medium to become independent from the […] and calcic currents, respectively. Ito was measured from depolarizing pulses.
The patch-clamp electrophysiological technique enables the membrane capacity (which reflects the cellular size) to be measured (this capacity reflects the cellular size). The results obtained with the above animals groups confirm the hypertrophy induced by the myocardial ischemia.

[4] = tested on: ischemiated and re-perfused hearts; test: Morphology of the hearts after ischemia-reperfusion; conditions: 30 min occlusion, IP injection 15 min before re-perfusion, 10 days after infarct
Description: In the case of reperfusion ischemia model (IR model), the silk wire was untied after 30 min of occlusion. The artery was then cleared and the myocardial territory reperfused. The control animals (sham operated) were submitted to the same surgery protocol as the above animals, but the silk wire was passed under the coronary without making any ligature.
The animals were sacrificed by a lethal injection of pentobarbital. The heart was excised and perfused 2-3 min. using Langendorf reverse route and a calcium-free washing solution (NaCl 117, KCl 5.7, NaHCO3 4.4, KH2PO4 1.5, MgCl2 1.7, HEPES 21, glucose 11, taurine 20, pH 7.2 adjusted to NaOH). The solution was then replaced by a PBS solution at 4% of PFA (about 10 ml). The heart was immersed in this fixation solution for about 1 h, and then washed with PBS 4%.
The animals were submitted to an occlusion of the left coronary artery during 30 min.
15 min before the re-perfusion, the animals were treated by an IP injection of D1 or DMSO. The animals were sacrificed after 72 h, 10 days after re-perfusion for an histological analysis of the hearts. The morphology of the hearts (PFA fixed 4%) 10 days after infarct is illustrated by FIG. 7.

| SMILES | animal survival over about 140 days post-infarctus [1] | Ca2+ release kinetics (amplitude/time to peak ratio) [2] | cell shortening [2] | sarcoplasmic reticulum Ca2+ load [2] | amplitude of cytosolic Ca2+ transients [2] | density of transitory current coming out (Ito) [3] | membrane capacity (cellular size; hypertrophy induced by myocardial ischemia) ([3]; pre-treatment) | potential of action (PA) duration remodeling, transmural EPI/ENDO gradient ([3]; pre-treatment, sub-epicardial and sub-endocardial cardiomyocytes) | heart size (cardiac hypertrophy) [4] |
| --- | --- | --- | --- | --- | --- | --- | --- | --- | --- |
| CC(C)[C@H](NC(=O)c1ccc2ccccc2n1)C(=O)N[C@@H](CC(=O)O)C(=O)COc1c(F)cccc1F [Q-VD-OPH] | survival curve superimposes on the one of the PMI group | unaffected | avoided cell shortening decreasing | not significantly different | unchanged | do not present any improvement; also recorded: no effect | has not effect |  |  |
| COC(=O)CC(NC(=O)[C@H](C)NC(=O)[C@@H](NC(=O)[C@H](CC(=O)OC)NC(=O)[C@@H](NC(=O)c1ccc2ccccc2n1)C(C)C)C(C)C)C(=O)COc1c(F)cccc1F (stereo partly drawn) [D1, (3S,6S,9S,12S)-methyl 15-(2-(2,6-difluorophenoxy)acetyl)-3,9-diisopropyl-6-(2-methoxy-2-oxoethyl)-12-methyl-1,4,7,10,13-pentaoxo-1-(quinolin-2-yl)-2,5,8,11,14-pentaazaheptadecan-17-oate] (Quinaldoyl-VD(OMe)VA-X1) |  | unaffected | avoided cell shortening decreasing | not significantly different | unchanged | very preserved; also recorded: significantly restored | highly prevented | total absence of PA remodeling | prevents cardiac hypertrophy |
